Source: patent US10149837B2, “Selective agonists of beta-adrenergic type 3 receptors (BAR3) and use thereof” (UNIVERSITA' DEGLI STUDI DI BARI, priority 2015, dated 2018)
Entries after “also recorded” stand apart in the source; their conditions may differ.

What was measured:
[1] = test system: AQP2; assay: kidney slices: AQP2 localisation by confocal laser scanning after stimulation; type: cell-based, mice; conditions: slices of vital tissue from murine C57BL-6 kidneys, 45 minutes of stimulation
Method: By the technique of “kidney slices”, thin slices of vital tissue from murine C57BL-6 kidneys have been obtained which, maintained in culture medium and appropriate atmosphere, have been stimulated with agonists able to increase the intracellular levels of cAMP (forskolin and vasopressin) and with the agonist of murine BRL37344 BAR3. After 45 minutes of stimulation the tissues have been fixed, marked for AQP2 and observed by confocal laser scanning.

[2] = test system: conditional knockout mice for AVPR2; assay: diuresis and urine osmolality in the animal model of X-linked nephrogenic diabetes insipidus (metabolic cage); type: in vivo
Method: At one hour from the injection of the compound, the diuresis of the treated mice is set to zero compared to control animals.
In the mouse affected by nephrogenic diabetes insipidus (X-NDI) for conditional deletion of the AVPR2 receptor, the compound BRL37344 has been administered by intraperitoneal injection at the dosage of 0.6 mg/Kg. Five animals received the compound whereas as many control animals received the vehicle only (physiological saline). The cumulative diuresis has been measured in metabolic cage in both animal groups.
The data obtained are in line with a transient effect induced by the stimulation of the renal BAR3 receptors by BRL37344.

[3] = X-NDI animal model, summary statement, no time point
[4] = X-NDI mice, 0.6 mg/Kg intraperitoneal, second hour after injection, vs control group, acetic acid sodium hydrate, 0.6 mg/kg

| SMILES | apical membrane expression (repositioning) of AQP2 ([1]; acetic acid sodium hydrate) | diuresis [2, 3] | urine osmolality [2, 3] | cumulative diuresis ([2]; X-NDI mice, 0.6 mg/Kg intraperitoneal, end of third hour after injection, vs control group, acetic acid sodium hydrate, 0.6 mg/kg) | cumulative diuresis ([2]; X-NDI mice, 0.6 mg/Kg intraperitoneal, first hour after injection, vs control group) | cumulative diuresis [2, 4] | urine osmolality [2, 4] | urine osmolality ([2]; X-NDI mice, 0.6 mg/Kg intraperitoneal, third hour after injection, vs control group, acetic acid sodium hydrate, 0.6 mg/kg) | apical membrane expression (repositioning) of AQP2 [1] |
| --- | --- | --- | --- | --- | --- | --- | --- | --- | --- |
| C[C@H](Cc1ccc(OCC(=O)O)cc1)NC[C@H](O)c1cccc(Cl)c1.O.[Na] (relative stereo) [BRL37344, (±)-(R*,R*)-[4-[2-[[2-(3-Chlorophenyl)-2-hydroxyethyl]amino]propyl]phenoxy] acetic acid sodium hydrate] | able to increase the apical levels of AQP2 with an effect comparable to that produced by vasopressin; also recorded: determines a repositioning of the marking of AQP2 on the apical membrane | drastic reduction of diuresis | increase of urine osmolality | still drastically reduced; also recorded: still remained statistically lower than that of the control group | set to zero | drastically reduced; also recorded: statistically reduced compared to the control group | significantly increased | tendency to increase although not statistically significant; also recorded: on average higher although not statistically different from that of the control group | – |
| NC(=O)CC[C@@H]1NC(=O)[C@H](Cc2ccccc2)NC(=O)[C@H](Cc2ccc(O)cc2)NC(=O)[C@@H](N)CSSC[C@@H](C(=O)N2CCC[C@H]2C(=O)N[C@@H](CCCN=C(N)N)C(=O)NCC(N)=O)NC(=O)[C@H](CC(N)=O)NC1=O [Vasopressin, vasopressin] | – | – | – | – | – | – | – | – | translocates AQP2 on the apical membrane of the tubular cells |
